Reference: the supplement of paper PMC10307832

Legend:
Experiment in all cases: relative viability (nuclei count vs DMSO), 5 days (fraction); higher = more cells survive
TPCA-1 + Alpelisib = compound: C1=CC(=CC=C1C2=CC(=C(S2)NC(=O)N)C(=O)N)F [TPCA-1] + Cc1nc(NC(=O)N2CCC[C@H]2C(N)=O)sc1-c1ccnc(C(C)(C)C(F)(F)F)c1 [Alpelisib] (partner 2 µM)
In short: (§1)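 Relative viability equals treated-well nuclei counts divided by vehicle-well nuclei counts. Counts came from 4× images of lung cancer cell lines grown in 1536-well plates for 5 days after pin-tool dosing on the day after seeding. Dosing used one drug alone or a fixed anchor-drug dose plus five library-drug doses (not always all listed) in √10 steps, and values are medians of duplicate plates.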

[1] = compound: C1/C(=C\C2=CC=CS2)/C(=O)/C(=C/C3=CC=CS3)/C1 + O=C(c1cc(Cc2n[nH]c(=O)c3ccccc23)ccc1F)N1CCN(C(=O)C2CC2)CC1 [Olaparib] (partner 8 µM)
In short: as §1

[2] = compound: C1/C(=C\C2=CC=CS2)/C(=O)/C(=C/C3=CC=CS3)/C1 + C[C@]1(O)C[C@@H](c2nc(-c3ccc4ccc(-c5ccccc5)nc4c3)c3c(N)nccn32)C1 [Linsitinib] (partner 1 µM)
In short: as §1

TPCA-1 + Dasatinib = compound: C1=CC(=CC=C1C2=CC(=C(S2)NC(=O)N)C(=O)N)F [TPCA-1] + Cc1nc(Nc2ncc(C(=O)Nc3c(C)cccc3Cl)s2)cc(N2CCN(CCO)CC2)n1 [Dasatinib] (partner 0.075 µM)
In short: as §1

Row | Cell Line | relative viability (TPCA-1 + Alpelisib; first compound 0.04 µM) | relative viability (TPCA-1 + Alpelisib; first compound 0.1265 µM) | relative viability (TPCA-1 + Alpelisib; first compound 0.4 µM) | relative viability (TPCA-1 + Alpelisib; first compound 1.265 µM) | relative viability (TPCA-1 + Alpelisib; first compound 4 µM) | relative viability ([1]; first compound 0.2 µM) | relative viability ([1]; first compound 0.6325 µM) | relative viability ([1]; first compound 2 µM) | relative viability ([1]; first compound 6.325 µM) | relative viability ([1]; first compound 20 µM) | relative viability ([2]; first compound 0.2 µM) | relative viability ([2]; first compound 0.6325 µM) | relative viability ([2]; first compound 2 µM) | relative viability ([2]; first compound 6.325 µM) | relative viability ([2]; first compound 20 µM) | relative viability (TPCA-1 + Dasatinib; first compound 0.04 µM) | relative viability (TPCA-1 + Dasatinib; first compound 0.1265 µM) | relative viability (TPCA-1 + Dasatinib; first compound 0.4 µM) | relative viability (TPCA-1 + Dasatinib; first compound 1.265 µM) | relative viability (TPCA-1 + Dasatinib; first compound 4 µM)
1 | NCI-H838 | 0.981 | 0.882 | 0.957 | 0.857 | 0.716 | 0.779 | 0.752 | 0.704 | 0.714 | 0.739 | 1.12 | 0.979 | 0.955 | 0.8 | 0.94 | 0.378 | 0.259 | 0.266 | 0.247 | 0.259
2 | NCI-H661 | 1.01 | 0.2 | 0.768 | 0.546 | 0.487 | 0.757 | 0.76 | 0.712 | 0.614 | 0.81 | 0.692 | 0.465 | 0.508 | 0.559 | 0.48 | 1 | 0.838 | 0.928 | 0.806 | 0.394
3 | NCI-H1734 | 0.726 | 0.571 | 0.767 | 0.69 | 0.686 | 0.621 | 0.597 | 0.596 | 0.528 | 0.629 | 0.902 | 0.931 | 0.947 | 0.782 | 0.875 | 0.508 | 0.421 | 0.492 | 0.455 | 0.41
4 | NCI-H596 | 0.545 | 0.485 | 0.442 | 0.428 | 0.345 | 0.674 | 0.727 | 0.767 | 0.596 | 0.665 | 1.15 | 1.04 | 1.02 | 1.01 | 1.04 | 0.661 | 0.559 | 0.599 | 0.597 | 0.763
5 | NCI-H1944 | 0.859 | 0.799 | 0.815 | 0.744 | 0.658 | 0.435 | 0.385 | 0.392 |  | 0.41 | 1.32 | 1.09 | 1.23 | 1.17 | 1.01 | 0.251 | 0.207 | 0.217 | 0.198 | 0.151
6 | LK-2 | 1.23 | 0.758 | 0.946 | 0.692 | 0.627 | 0.769 | 0.787 | 0.765 | 0.853 | 0.753 | 0.641 | 0.857 | 0.633 | 0.583 | 0.59 | 0.255 | 0.226 | 0.386 | 0.241 | 0.237
